Results taken from patent US20060269504A1, “Use of alkyl resorcinols in the treatment of acne” (priority 2003, published 2006).
Values after ≈ are worked out from the molar mass of the structure shown. “Also recorded” adds a separate entry of the source. Read-outs that look alike come from different tables or passages of the source.

Tests used:
[1] = test system: P. acnes G63 and P. avidum NCTC 11864; experiment: In vitro propionibacterial model: glucose biotransformation to propionic acid (GC) and culture viability (TVC); assay type: cell-based; settings: for BIC50 MoA(s), mode(s) of action at BIC50 levels: P. acnes G63 and P. avidum NCTC 11864, by reference to culture viability data; for BIC50, mean concentration at 50% inhibition of glucose biotransformation to propionic acid: mean of P. acnes G63 and P. avidum NCTC 11864, anaerobic, 35° C.; for BIC50, mean concentration at 50% inhibition of glucose biotransformation to propionic acid / MBC, range of minimum bactericidal levels: 24 h; for MBC, range of minimum bactericidal levels: range for P. acnes G63 and P. avidum NCTC 11864, minimum level effecting >3 log10 reduction in viability
Method: (§1) The propionibacterial model involved the use of 7 ml glass vials, to which were added 6.0 ml synthetic medium (see below), supplemented with glucose substrate (2.0 mg/ml). The corynebacterial model involved the use of 250 ml baffled shake flasks, to which were added 30.0 ml synthetic medium (see below), supplemented with fatty acid substrate (2.0 mg/ml pentadecanoic acid). To each vial or flask (other than controls) was also added one of the indicated test materials, from a 1.0-10.0% (w/v) stock solution in 50% (v/v) ethanol. Each assay was inoculated with fresh bacterial biomass (Propionibacterium acnes G63 [skin isolate], P. avidum NCTC 11864 or Corynebacterium sp. NCIMB 40928), pre-grown for 24-48 h, under aerobic (corynebacteria) or anaerobic (propionibacteria) conditions, in TSBT (see below), to give starting optical densities (A590) of ˜1.0. Following inoculation, the vials and flasks were incubated aerobically (corynebacteria) or anaerobically (propionibacteria) at 35° C., with agitation (120 rpm), for 24 h. After this time, culture viability was determined by total viable count (TVC) analysis on ACX plates (see below), following serial dilution in quarter-strength Ringers solution. Also, at the end of each experiment, the extent of glucose or fatty acid biotransformation to propionic acid was measured by capillary gas chromatography (GC) (see below), and the dose response data used to calculate, for each active ingredient, a BIC so value (50% biotransformation inhibition concentration). The mode of action (bacteriostatic or bactericidal) at this level was elucidated by reference to culture viability data, which was also used to determine the MBC (minimum bactericidal concentration), defined as the minimum level of each active effecting a >3 log10 ml^31 1 reduction in viability (Tables 1 & 2). Finally, the data for P. acnes G63 and P. avidum NCTC 11864 were combined to generate mean and range anti-propionibacterial values (Table 1).
(§2) KH2PO4 (1.6); (NH4)2HPO4 (5.0); Na2SO4 (0.38); KNO3 (0.1); NaHCO3 (1.0); sodium thioglycolate (1.0); sodium pyruvate (1.0); yeast nitrogen base (Difco) (3.35); MgCl2.6H2O (0.5).
(§3) Tryptone soya broth (Merck) (30.0); yeast extract (Beta Lab) (10.0); Tween 80™ (5.0).
(§4) blood agar base no. 2 (Oxoid) (39.5); yeast extract (Beta Lab) (3.0); glucose (2.0); Tween 80 ™ (5.0); defibrinated horse blood (50 ml/l).
(§5) 1.0 ml aliquots from each assay vial were transferred into sampling tubes, an internal standard (1.0 mg/ml caproic acid) added to each tube, and the culture medium acidified (pH˜2) by the addition of HCl. Liquid-liquid extraction was then carried out using 2 vol (2 ml) ethyl acetate, with organic and aqueous phases being resolved by centrifugation (2000 rpm, 2 min). ˜0.75 ml of each organic (upper) phase was then transferred to a fresh sampling tube prior to analysis on a Perkin Elmer 8000 (Series 2) GC fitted with a 15 m×0.32 mm (internal diameter) FFAP fused silica capillary column (film thickness 0.25 μm) (Quadrex). Metabolite levels were quantified by comparison of peak areas with known amounts of both internal (caproic acid) and externally-run (propionic acid) standards. GC running conditions as indicated: injector (split/splitless), 300° C.; detector (flame ionisation), 300° C.; oven, 80° C. (2 min), 80-155° C. (7.5° C./min), 155° C. (1 min); injection volume, 1.0 μl.

[2] = test system: Corynebacterium sp. NCIMB 40928; experiment: In vitro corynebacterial model: pentadecanoic acid biotransformation to propionic acid (GC) and culture viability (TVC); assay type: cell-based; settings: for BIC50, concentration at 50% inhibition of pentadecanoic acid biotransformation to propionic acid: aerobic, 35° C.; for BIC50 MoA(s), mode of action at BIC50 level: by reference to culture viability data; for MBC: read-out: MBC, minimum bactericidal levels
Method: as §1, §2, §3, §4, §5

[3] = Corynebacterium sp. NCIMB 40928, 24 h
[4] = Corynebacterium sp. NCIMB 40928

Row | SMILES | BIC50 MoA(s), mode(s) of action at BIC50 levels [1] | selectivity for Propionibacterium spp. compared to other bacteria normally present on the skin ([1]; comparison of Tables 1 and 2, versus Triclosan) | BIC50, mean concentration at 50% inhibition of glucose biotransformation to propionic acid [1] | MBC, range of minimum bactericidal levels [1] | anti-propionibacterial properties compared with Triclosan ([1]; summary of Table 1) | BIC50, concentration at 50% inhibition of pentadecanoic acid biotransformation to propionic acid [2, 3] | BIC50 MoA(s), mode of action at BIC50 level [2, 4] | MBC ([2]; NCIMB40928, Corynebacterium sp. NCIMB 40928, minimum level effecting >3 log10 reduction in viability, 24 h) | MBC ([2]; Corynebacterium, NCIMB40928, 24 h)
1 | CCCCCCc1ccc(O)cc1O [4-Hexylresorcinol, 4-hexylresorcinol] | Bacteriostatic/; also recorded: Bactericidal | far greater selectivity than Triclosan | 42 ppm | 50-100 ppm | as good as those of Triclosan | 118 ppm | Bacteriostatic | > 500 µg/mL | –
2 | Oc1cc(Cl)ccc1Oc1ccc(Cl)cc1Cl [Triclosan, 2,4,4′-trichloro-2′-hydroxydiphenyl ether, reference compound] | Bactericidal; also recorded: Bacteriostatic/ | – | 39 ppm | 50-100 ppm | – | 20 ppm | Bacteriostatic | – | 50 µg/mL (≈ 173 µM)
